Test [1] relates to 5-lipoxygenase. The test can be described thus: Ex vivo A-23187-stimulated LTB4 formation in whole blood after oral administration. As to conditions: dog, about 0.3 mg/kg p.o. As for the experimental part:
Furthermore, the inhibition of 5-lipoxygenase is determined after oral or i.v. administration to rats or dogs by measuring ex vivo in whole blood the decrease of A-23187-stimulated LTB4 formation as compared to non-treated control animals.

Test [2] deals with rat chronic colitis model. The test can be described thus: Trinitrobenzenesulfonic acid-induced chronic colitis model. Particulars: 100 mg/kg p.o. for 4 days. In kind it is in vivo. The text has this: The trinitrobenzenesulfonic acid-induced chronic colitis test in the rat, e.g. as described by Wallace et al, Gastroenterology 1989, 96, 29-36, can be used to evaluate compounds for effects indicative of utility in inflammatory bowel diseases.

Test [3] addresses T1, 5-lipoxygenase (Cavia porcellus, UniProt A0A286X958).
T1 construct: A-23187-stimulated guinea pig polymorphonuclear leukocytes; endogenous in cells; host or cells: guinea pig polymorphonuclear leukocytes
T1 sequence (A0A286X958 1-674): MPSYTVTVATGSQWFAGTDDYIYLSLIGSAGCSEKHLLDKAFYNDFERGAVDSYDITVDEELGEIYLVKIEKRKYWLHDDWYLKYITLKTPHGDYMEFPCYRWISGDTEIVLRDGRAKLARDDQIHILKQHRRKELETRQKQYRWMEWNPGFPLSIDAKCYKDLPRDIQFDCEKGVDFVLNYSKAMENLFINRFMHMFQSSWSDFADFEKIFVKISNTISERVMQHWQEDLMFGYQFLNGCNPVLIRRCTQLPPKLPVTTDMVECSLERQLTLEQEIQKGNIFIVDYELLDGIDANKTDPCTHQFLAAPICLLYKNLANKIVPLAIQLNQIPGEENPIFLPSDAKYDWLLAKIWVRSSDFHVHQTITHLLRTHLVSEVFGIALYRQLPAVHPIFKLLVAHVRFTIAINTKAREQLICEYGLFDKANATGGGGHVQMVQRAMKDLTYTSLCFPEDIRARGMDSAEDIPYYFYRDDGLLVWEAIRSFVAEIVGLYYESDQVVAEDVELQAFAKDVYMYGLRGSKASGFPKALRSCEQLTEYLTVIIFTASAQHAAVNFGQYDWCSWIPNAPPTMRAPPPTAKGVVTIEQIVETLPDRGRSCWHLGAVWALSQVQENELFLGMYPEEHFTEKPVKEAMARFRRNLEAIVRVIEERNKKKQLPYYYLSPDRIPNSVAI
As to the kind of experiment: Inhibition of 5-HETE and LTB4 synthesis in A-23187-stimulated guinea pig polymorphonuclear leukocytes. In kind it is cell-based. Particulars: read-out: IC50 for inhibition of the formation of 5-HETE and leukotriene B4 (LTB4). As for the experimental part:
5-Lipoxygenase inhibition is determined e.g. by measuring the percent inhibition of the synthesis of 5-HETE [(5S)-5-hydroxy-6,8,11,14-eicosa-tetraenoic acid] and leukotriene B4 (LTB4, 5,12-dihydroxy-6,8,10,14-eicosatetraenoic acid) in A-23187-stimulated guinea pig polymorphonuclear leukocytes, essentially according to radiometric thin-layer chromatographic assays described by Walker and Dawson (J. Pharm. Pharmacol. 31: 778, 1979) and Jakschik and Lee (Nature 287: 51, 1980) to measure the formation of 5-HETE and LTB4 -like products from ^14 C-arachidonic acid. IC50 values are determined graphically as the concentration of test compound at which the synthesis of 5-HETE and LTB4 -like products is reduced to 50% of their respective control values.

In test [4] the test system is rat pleurisy model of inflammation. As to the kind of experiment: Carrageenin-induced pleurisy model of inflammation. Format: in vivo. As to conditions: 10 mg/kg p.o. at -1, 6, 24 and 45 hours relative to carrageenin injection, 48 hours after injection. An excerpt:
214, 74 (1980), in particular during the late phase of the corrageenin-induced pleurisy.

The results in this text go back to patent US5155130A, “Certain benzopyran and benzothiopyran derivatives” (Ciba-Geigy Corporation, priority 1990, dated 1992).

A word on the IC50: it is the concentration that inhibits the measured activity by half.

As to `NC(=O)N(O)CC1=Cc2cc(Oc3ccccc3)ccc2OC1` [2(d), 3-[(N-Aminocarbonyl-N-hydroxy)aminomethyl]-6-phenoxy-2H-1-benzopyran], the “inhibition of LTB4 formation as determined ex vivo” value in test [1] was “significant inhibition”. Also, in test [2], the inhibition of colitis result is on record as “inhibits colitis”. Besides, in test [3], the IC50 is about 50 nM. For the same compound, in test [4], the “cell count of leukocytes” value is listed as “lower” and the “inhibition of exudate volume” value is “inhibition”.
In the case of `CNC(=O)N(O)CC1=Cc2cc(Oc3ccc(F)cc3)ccc2OC1` [5(f), 3-[{N-(N'-methylaminocarbonyl)-N-hydroxy}aminomethyl]-6-(p-fluorophenoxy)-2H-1-benzopyran], the “inhibition of LTB4 formation as determined ex vivo” value in test [1] is given as “significant inhibition”. Moreover, in test [4], the “cell count of leukocytes” value was “lower” and the “inhibition of exudate volume” value was “inhibition”.
